Reference: patent publication US10582709B2, “Butyrolactones as herbicides” (FMC Corporation, priority 2015, dated 2020)

What was measured:
Type in all cases: in vivo
[1] = system: barnyardgrass (Echinochloa crus-galli); test: Test B flooded paddy test, barnyardgrass; conditions: applied to paddy water at 2-leaf stage, 13 to 15 d, scale 0 no effect to 100 complete control
Protocol: (§1) Plant species in the flooded paddy test selected from rice (Oryza sativa), sedge, umbrella (small-flower umbrella sedge, Cyperus difformis), ducksalad (Heteranthera limosa), and barnyardgrass (Echinochloa crus-galli) were grown to the 2-leaf stage for testing. At time of treatment, test pots were flooded to 3 cm above the soil surface, treated by application of test compounds directly to the paddy water, and then maintained at that water depth for the duration of the test. Treated plants and controls were maintained in a greenhouse for 13 to 15 d, after which time all species were compared to controls and visually evaluated. Plant response ratings, summarized in Table B, are based on a scale of 0 to 100 where 0 is no effect and 100 is complete control. A dash (-) response means no test result.

[2] = system: ducksalad (Heteranthera limosa); test: Test B flooded paddy test, ducksalad; conditions: applied to paddy water at 2-leaf stage, 13 to 15 d, scale 0 no effect to 100 complete control
Protocol: as §1

rice (Oryza sativa) = test: Test B flooded paddy test, rice; conditions: applied to paddy water at 2-leaf stage, 13 to 15 d, scale 0 no effect to 100 complete control
Protocol: as §1

[3] = system: sedge, umbrella (small-flower umbrella sedge, Cyperus difformis); test: Test B flooded paddy test, umbrella sedge; conditions: applied to paddy water at 2-leaf stage, 13 to 15 d, scale 0 no effect to 100 complete control
Protocol: as §1

[4] = system: barnyardgrass (Echinochloa crus-galli); test: Test A preemergence, barnyardgrass; conditions: visual rating after approx. 10 d, 0 to 100 scale, 0 no effect, 100 complete control
Excerpt: (§2) Seeds of plant species selected from barnyardgrass (Echinochloa crus-galli), crabgrass (large crabgrass, Digitaria sanguinalis), kochia (Kochia scoparia), ragweed (common ragweed, Ambrosia elatior), morningglory (Ipomoea spp.), velvetleaf (Abutilon theophrasti), ryegrass, Italian (Italian ryegrass, Lolium multiflorum), foxtail, giant (giant foxtail, Setaria faberii), wheat (Triticum aestivum), corn (Zea mays), and pigweed (Amaranthus retroflexus), were planted into a blend of loam soil and sand and treated preemergence with a directed soil spray using test chemicals formulated in a non-phytotoxic solvent mixture which included a surfactant. At the same time, plants selected from these crop and weed species and also blackgrass (Alopecurus myosuroides), and galium (catchweed bedstraw, Galium aparine), were planted in pots containing the same blend of loam soil and sand and treated with postemergence applications of test chemicals formulated in the same manner. Plants ranged in height from 2 to 10 cm and were in the one- to two-leaf stage for the postemergence treatment. Treated plants and untreated controls were maintained in a greenhouse for approximately 10 d, after which time all treated plants were compared to untreated controls and visually evaluated for injury. Plant response ratings, summarized in Table A, are based on a 0 to 100 scale where 0 is no effect and 100 is complete control. A dash (-) response means no test result.

kochia (Kochia scoparia) [5] = test: Test A preemergence, kochia; conditions: visual rating after approx. 10 d, 0 to 100 scale, 0 no effect, 100 complete control
Excerpt: as §2

[6] = system: ragweed (common ragweed, Ambrosia elatior); test: Test A preemergence, ragweed; conditions: visual rating after approx. 10 d, 0 to 100 scale, 0 no effect, 100 complete control
Excerpt: as §2

[7] = system: ryegrass, Italian (Italian ryegrass, Lolium multiflorum); test: Test A preemergence, Italian ryegrass; conditions: visual rating after approx. 10 d, 0 to 100 scale, 0 no effect, 100 complete control
Excerpt: as §2

[8] = system: foxtail, giant (giant foxtail, Setaria faberii); test: Test A preemergence, giant foxtail; conditions: visual rating after approx. 10 d, 0 to 100 scale, 0 no effect, 100 complete control
Excerpt: as §2

[9] = system: pigweed (Amaranthus retroflexus); test: Test A preemergence, pigweed; conditions: visual rating after approx. 10 d, 0 to 100 scale, 0 no effect, 100 complete control
Excerpt: as §2

[10] = system: barnyardgrass (Echinochloa crus-galli); test: Test A postemergence, barnyardgrass; conditions: visual rating after approx. 10 d, 0 to 100 scale, 0 no effect, 100 complete control
Excerpt: as §2

kochia (Kochia scoparia) [11] = test: Test A postemergence, kochia; conditions: visual rating after approx. 10 d, 0 to 100 scale, 0 no effect, 100 complete control
Excerpt: as §2

[12] = system: ragweed (common ragweed, Ambrosia elatior); test: Test A postemergence, ragweed; conditions: visual rating after approx. 10 d, 0 to 100 scale, 0 no effect, 100 complete control
Excerpt: as §2

[13] = system: ryegrass, Italian (Italian ryegrass, Lolium multiflorum); test: Test A postemergence, Italian ryegrass; conditions: visual rating after approx. 10 d, 0 to 100 scale, 0 no effect, 100 complete control
Excerpt: as §2

[14] = system: foxtail, giant (giant foxtail, Setaria faberii); test: Test A postemergence, giant foxtail; conditions: visual rating after approx. 10 d, 0 to 100 scale, 0 no effect, 100 complete control
Excerpt: as §2

[15] = system: wheat (Triticum aestivum); test: Test A postemergence, wheat; conditions: visual rating after approx. 10 d, 0 to 100 scale, 0 no effect, 100 complete control
Excerpt: as §2

corn (Zea mays) = test: Test A postemergence, corn; conditions: visual rating after approx. 10 d, 0 to 100 scale, 0 no effect, 100 complete control
Excerpt: as §2

[16] = system: pigweed (Amaranthus retroflexus); test: Test A postemergence, pigweed; conditions: visual rating after approx. 10 d, 0 to 100 scale, 0 no effect, 100 complete control
Excerpt: as §2

[17] = system: blackgrass (Alopecurus myosuroides); test: Test A postemergence, blackgrass; conditions: visual rating after approx. 10 d, 0 to 100 scale, 0 no effect, 100 complete control
Excerpt: as §2

[18] = system: galium (catchweed bedstraw, Galium aparine); test: Test A postemergence, galium; conditions: visual rating after approx. 10 d, 0 to 100 scale, 0 no effect, 100 complete control
Excerpt: as §2

Compound	Plant response rating, Barnyardgrass ([4]; 125 g ai/ha)	Plant response rating, Barnyardgrass ([4]; 500 g ai/ha)	Plant response rating, Kochia (kochia (Kochia scoparia) [5]; 125 g ai/ha)	Plant response rating, Kochia (kochia (Kochia scoparia) [5]; 500 g ai/ha)	Plant response rating, Ragweed ([6]; 125 g ai/ha)	Plant response rating, Ragweed ([6]; 500 g ai/ha)	Plant response rating, Ryegrass, Italian ([7]; 125 g ai/ha)	Plant response rating, Ryegrass, Italian ([7]; 500 g ai/ha)	Plant response rating, Foxtail, Giant ([8]; 125 g ai/ha)	Plant response rating, Foxtail, Giant ([8]; 500 g ai/ha)	Plant response rating, Pigweed ([9]; 125 g ai/ha)	Plant response rating, Pigweed ([9]; 500 g ai/ha)	Plant response rating, Barnyardgrass ([10]; 125 g ai/ha)	Plant response rating, Barnyardgrass ([10]; 500 g ai/ha)	Plant response rating, Kochia (kochia (Kochia scoparia) [11]; 125 g ai/ha)	Plant response rating, Kochia (kochia (Kochia scoparia) [11]; 500 g ai/ha)	Plant response rating, Ragweed ([12]; 125 g ai/ha)	Plant response rating, Ragweed ([12]; 500 g ai/ha)	Plant response rating, Ryegrass, Italian ([13]; 125 g ai/ha)	Plant response rating, Ryegrass, Italian ([13]; 500 g ai/ha)	further results
O=C(Nc1ccccc1F)C1C(=O)OCC1c1ccc(C(F)(F)F)cc1 (racemic) [Compound 8]	0	20	0	0	0	0	0	0	20	40	0	0	0	20	0	0	0	0	0	0	Plant response rating, Flood, Barnyardgrass ([1]; 250 g ai/ha): 0; Plant response rating, Flood, Barnyardgrass ([1]; 1000 g ai/ha): 0; Plant response rating, Flood, Ducksalad ([2]; 250 g ai/ha): 30; Plant response rating, Flood, Ducksalad ([2]; 1000 g ai/ha): 30; Plant response rating, Flood, Rice (rice (Oryza sativa); 250 g ai/ha): 0; Plant response rating, Flood, Rice (rice (Oryza sativa); 1000 g ai/ha): 0; Plant response rating, Flood, Sedge, Umbrella ([3]; 250 g ai/ha): 0; Plant response rating, Flood, Sedge, Umbrella ([3]; 1000 g ai/ha): 0; Plant response rating, Foxtail, Giant ([14]; 125 g ai/ha): 20; Plant response rating, Foxtail, Giant ([14]; 500 g ai/ha): 40; Plant response rating, Wheat ([15]; 125 g ai/ha): 0; Plant response rating, Wheat ([15]; 500 g ai/ha): 0; Plant response rating, Corn (corn (Zea mays); 125 g ai/ha): 0; Plant response rating, Corn (corn (Zea mays); 500 g ai/ha): 0; Plant response rating, Pigweed ([16]; 125 g ai/ha): 0; Plant response rating, Pigweed ([16]; 500 g ai/ha): 0; Plant response rating, Blackgrass ([17]; 125 g ai/ha): 0; Plant response rating, Blackgrass ([17]; 500 g ai/ha): 0; Plant response rating, Galium ([18]; 125 g ai/ha): 0; Plant response rating, Galium ([18]; 500 g ai/ha): 0
O=C(Nc1cccc(F)c1C(F)(F)F)C1C(=O)OCC1c1cccc(C(F)(F)F)c1 (racemic) [Compound 13]	0	0	0	0	0	0	0	0	40	70	0	0	0	0	0	0	0	0	0	0	Plant response rating, Flood, Barnyardgrass ([1]; 500 g ai/ha): 0; Plant response rating, Flood, Ducksalad ([2]; 500 g ai/ha): 0; Plant response rating, Flood, Rice (rice (Oryza sativa); 500 g ai/ha): 0; Plant response rating, Flood, Sedge, Umbrella ([3]; 500 g ai/ha): 0; Plant response rating, Foxtail, Giant ([14]; 125 g ai/ha): 20; Plant response rating, Foxtail, Giant ([14]; 500 g ai/ha): 40; Plant response rating, Wheat ([15]; 125 g ai/ha): 0; Plant response rating, Wheat ([15]; 500 g ai/ha): 0; Plant response rating, Corn (corn (Zea mays); 125 g ai/ha): 0; Plant response rating, Corn (corn (Zea mays); 500 g ai/ha): 0; Plant response rating, Pigweed ([16]; 125 g ai/ha): 0; Plant response rating, Pigweed ([16]; 500 g ai/ha): 0; Plant response rating, Blackgrass ([17]; 125 g ai/ha): 0; Plant response rating, Blackgrass ([17]; 500 g ai/ha): 0; Plant response rating, Galium ([18]; 125 g ai/ha): 0; Plant response rating, Galium ([18]; 500 g ai/ha): 0
O=C(Nc1cccc(F)c1C(F)(F)F)C1C(=O)OCC1c1ccc(F)c(C(F)(F)F)c1 (racemic) [Compound 18]	0	0	0	0	0	0	0	0	0	40	0	0	0	0	0	0	0	0	0	0	Plant response rating, Flood, Barnyardgrass ([1]; 500 g ai/ha): 0; Plant response rating, Flood, Ducksalad ([2]; 500 g ai/ha): 0; Plant response rating, Flood, Rice (rice (Oryza sativa); 500 g ai/ha): 0; Plant response rating, Flood, Sedge, Umbrella ([3]; 500 g ai/ha): 0; Plant response rating, Foxtail, Giant ([14]; 125 g ai/ha): 0; Plant response rating, Foxtail, Giant ([14]; 500 g ai/ha): 30; Plant response rating, Wheat ([15]; 125 g ai/ha): 0; Plant response rating, Wheat ([15]; 500 g ai/ha): 0; Plant response rating, Corn (corn (Zea mays); 125 g ai/ha): 0; Plant response rating, Corn (corn (Zea mays); 500 g ai/ha): 0; Plant response rating, Pigweed ([16]; 125 g ai/ha): 0; Plant response rating, Pigweed ([16]; 500 g ai/ha): 0; Plant response rating, Blackgrass ([17]; 125 g ai/ha): 0; Plant response rating, Blackgrass ([17]; 500 g ai/ha): 0; Plant response rating, Galium ([18]; 125 g ai/ha): 0; Plant response rating, Galium ([18]; 500 g ai/ha): 0
O=C(Nc1cccc(F)c1F)C1C(=O)OCC1c1ccc(F)c(C(F)(F)F)c1 (racemic) [Compound 15]	40	70	0	0	0	0	0	40	70	90	0	0	30	70	0	0	0	0	0	20	Plant response rating, Flood, Barnyardgrass ([1]; 500 g ai/ha): 0; Plant response rating, Flood, Ducksalad ([2]; 500 g ai/ha): 0; Plant response rating, Flood, Rice (rice (Oryza sativa); 500 g ai/ha): 0; Plant response rating, Flood, Sedge, Umbrella ([3]; 500 g ai/ha): 0; Plant response rating, Foxtail, Giant ([14]; 125 g ai/ha): 30; Plant response rating, Foxtail, Giant ([14]; 500 g ai/ha): 70; Plant response rating, Wheat ([15]; 125 g ai/ha): 0; Plant response rating, Wheat ([15]; 500 g ai/ha): 20; Plant response rating, Corn (corn (Zea mays); 125 g ai/ha): 0; Plant response rating, Corn (corn (Zea mays); 500 g ai/ha): 20; Plant response rating, Pigweed ([16]; 125 g ai/ha): 0; Plant response rating, Pigweed ([16]; 500 g ai/ha): 0; Plant response rating, Blackgrass ([17]; 125 g ai/ha): 0; Plant response rating, Blackgrass ([17]; 500 g ai/ha): 20; Plant response rating, Galium ([18]; 125 g ai/ha): 0; Plant response rating, Galium ([18]; 500 g ai/ha): 20
